Experimental data: patent US4307016A, “Demethyl maytansinoids” (priority 1978, dated 1981)
Values after ≈ are worked out from the molar mass of the structure shown. Read-outs that look alike come from different tables or passages of the source.

Experiments:
[1] = test system: Hamigera avellanea IFO 7721; assay: Antifungal activity, paper disc method (zone of growth inhibition); format: cell-based; conditions: for zone of inhibition at 100 µg/mL: Hamigera avellanea
Protocol: On the other hand, on agar plates [3.5 g disodium hydrogen phosphate, 0.5 g monopotassium phosphate, 5 g of yeast extract (Difco), 10 g glucose, 15 g agar, 1000 ml distilled water, pH 7.0], the antifungal activity of the test compound was assayed against Hamigera avellanea IFO 7721 by the paper disc method. Thus, on the plates inoculated with the above microorganism, the zones of growth inhibition were determined using paper discs immersed with 0.02 ml of a 100 μg/ml solution of demethylmaytansinoid compound (I).

Tetrahymena pyriformis W = assay: Antiprotozoan activity, serial dilution method (MIC); format: cell-based
Protocol: Then, with Tetrahymena pyriformis W as the test organism and a medium composed of 20 g tryptose-peptone (Difco Co.), 1 g yeast extract, 1 g glucose, 1000 ml distilled water, 10 ml 1 M phosphate buffer (pH 7.0) as the assay medium, the microorganism was incubated at 28° C. for 44 to 48 hours and the growth inhibitory activity of demethylmaytansinoid compound (I) was assayed by the serial dilution method.

Solubility = conditions: for Solubility in benzene, ether: ether (Table 4); for Solubility in chloroform, ethyl acetate, tetrahydrofuran, acetone, ethanol, methanol: organic solvents (Table 4); for Solubility in pyridine, dimethyl sulfoxide: dimethyl sulfoxide (Table 4); for Solubility in chloroform, ethyl acetate, acetone, ethanol, methanol, pyridine, tetrahydrofuran & dimethylsulfoxide: organic solvents (Table 3); for Solubility in petr. ether, n-hexane & water: n-hexane & water (Table 3)
[2] = IFO7721, read-out: Antifungal activity, (φ mm), zone of growth inhibition, paper disc (8 mm diam.), 0.02 ml of a 100 μg/ml solution
[3] = pH 7, read-out: Antiprotozoan activity, MIC
[4] = IFO7721, paper disc (8 mm diam.), 0.02 ml of a 100 μg/ml solution, read-out: Antifungal activity, (φ mm), zone of growth inhibition

Row | SMILES | zone of inhibition at 100 µg/mL [1, 2] | MIC (Tetrahymena pyriformis W; [3]) | other results
1 | COC1C=CC=C(C)Cc2cc(O)cc(c2)N(C)C(=O)CC(OC(=O)C(C)C)C2(C)OC2C(C)C2CC1(O)NC(=O)O2 (stereo not shown) [20-Demethoxy-20-hydroxydechloromaytansinol 3-isobutyrate] | 16 mm |  | 
2 | COC1C=CC=C(C)Cc2cc(O)c(Cl)c(c2)N(C)C(=O)CC(OC(C)=O)C2(C)OC2C(C)C2CC1(O)NC(=O)O2 (stereo not shown) [20-Demethoxy-20-hydroxymaytanacine] | 10 mm | 10 µg/mL (≈ 16.9 µM) | Solubility in benzene, ether (Solubility): Slightly soluble; Solubility in chloroform, ethyl acetate, tetrahydrofuran, acetone, ethanol, methanol (Solubility): Soluble; Solubility in pyridine, dimethyl sulfoxide (Solubility): Freely soluble
3 | COC1C=CC=C(C)Cc2cc(O)c(Cl)c(c2)N(C)C(=O)CC(OC(=O)[C@H](C)N(C)C(=O)C(C)C)C2(C)OC2C(C)C2CC1(O)NC(=O)O2 (stereo partly shown) [20-Demethoxy-20-hydroxymaytanbutine (L)] | 24 mm |  | 
4 | CCC(=O)N(C)[C@@H](C)C(=O)OC1CC(=O)N(C)c2cc(cc(O)c2Cl)CC(C)=CC=CC(OC)C2(O)CC(OC(=O)N2)C(C)C2OC12C (stereo partly shown) [20-Demethoxy-20-hydroxymaytanprine (L)] | 23 mm |  | 
5 | COC1C=CC=C(C)Cc2cc(O)c(Cl)c(c2)N(C)C(=O)CC(OC(=O)[C@H](C)N(C)C(C)=O)C2(C)OC2C(C)C2CC1(O)NC(=O)O2 (stereo partly shown) [20-Demethoxy-20-hydroxymaytansine (L)] |  | > 16 µg/mL | 
6 | COC1C=CC=C(C)Cc2cc(O)c(Cl)c(c2)N(C)C(=O)CC(OC(=O)Nc2ccccc2)C2(C)OC2C(C)C2CC1(O)NC(=O)O2 (stereo not shown) [20-Demethoxy-20-hydroxymaytansinol 3-N-phenylcarbamate] | < 8 mm | ≥ 8 µg/mL | 
7 | COC1C=CC=C(C)Cc2cc(O)c(Cl)c(c2)N(C)C(=O)CC(OC(=O)C2CCCCC2)C2(C)OC2C(C)C2CC1(O)NC(=O)O2 (stereo not shown) [20-Demethoxy-20-hydroxymaytansinol 3-cyclohexanecarboxylate] | 20 mm |  | 
8 | CCCCCC(=O)OC1CC(=O)N(C)c2cc(cc(O)c2Cl)CC(C)=CC=CC(OC)C2(O)CC(OC(=O)N2)C(C)C2OC12C (stereo not shown) [20-Demethoxy-20-hydroxymaytansinol 3-hexanoate] | 21 mm |  | 
9 | COC1C=CC=C(C)Cc2cc(O)c(Cl)c(c2)N(C)C(=O)CC(OC(=O)c2ccc(Cl)cc2)C2(C)OC2C(C)C2CC1(O)NC(=O)O2 (stereo not shown) [20-Demethoxy-20-hydroxymaytansinol 3-p-chlorobenzoate] | 10 mm | 4 µg/mL (≈ 5.8 µM) | 
10 | COC1C=CC=C(C)Cc2cc(O)c(Cl)c(c2)N(C)C(=O)CC(OC(=O)Cc2ccccc2)C2(C)OC2C(C)C2CC1(O)NC(=O)O2 (stereo not shown) [20-Demethoxy-20-hydroxymaytansinol 3-phenylacetate] |  |  | zone of inhibition at 100 µg/mL [1, 4]: 23 mm; Antifungal activity, (φ mm), zone of growth inhibition ([1]; paper disc (8 mm diam.), 0.02 ml of a 100 μg/ml solution): 15 mm
11 | COC1C=CC=C(C)Cc2cc(O)c(Cl)c(c2)N(C)C(=O)CC(OC(=O)c2ccccn2)C2(C)OC2C(C)C2CC1(O)NC(=O)O2 (stereo not shown) [20-Demethoxy-20-hydroxymaytansinol 3-picolinate] | 10 mm | ≥ 4 µg/mL | 
12 | CCC(=O)OC1CC(=O)N(C)c2cc(cc(O)c2Cl)CC(C)=CC=CC(OC)C2(O)CC(OC(=O)N2)C(C)C2OC12C (stereo not shown) [20-Demethoxy-20-hydroxymaytansinol propionate] | 15 mm |  | Solubility in benzene, ether (Solubility): Slightly soluble; Solubility in chloroform, ethyl acetate, tetrahydrofuran, acetone, ethanol, methanol (Solubility): Soluble; Solubility in pyridine, dimethyl sulfoxide (Solubility): Freely soluble
13 | COC1C=CC=C(C)Cc2cc(O)c(Cl)c(c2)N(C)C(=O)CC(O)C2(C)OC2C(C)C2CC1(O)NC(=O)O2 (stereo not shown) [20-Demethoxy-20-hydroxymaytansinol] | < 8 mm | 40 µg/mL (≈ 72.6 µM) | Solubility in benzene, ether (Solubility): Slightly soluble; Solubility in chloroform, ethyl acetate, tetrahydrofuran, acetone, ethanol, methanol (Solubility): Soluble; Solubility in pyridine, dimethyl sulfoxide (Solubility): Freely soluble
14 | COC1C=CC=C(C)Cc2cc(O)c(Cl)c(c2)N(C)C(=O)CC(OC(=O)[C@H](C)N(C)C(=O)CC(C)C)C2(C)OC2C(C)C2CC1(O)NC(=O)O2 (stereo partly shown) [20-Demethoxy-20-hydroxymaytanvaline (L)] | 24 mm | 2 µg/mL (≈ 2.78 µM) | 
15 | COc1cc2cc(c1Cl)N(C)C(=O)CC(OC(=O)C(C)C)C1(C)OC1C(C)C1CC(O)(NC(=O)O1)C(OC)C=CC=C(C)C2 (stereo not shown) [Ansamitocin P-3, reference compound] |  |  | Solubility in chloroform, ethyl acetate, acetone, ethanol, methanol, pyridine, tetrahydrofuran & dimethylsulfoxide (Solubility): Soluble; Solubility in petr. ether, n-hexane & water (Solubility): Insoluble
16 | COc1cc2cc(c1Cl)N(C)C(=O)CC(OC(=O)CC(C)C)C1(C)OC1C(C)C1CC(O)(NC(=O)O1)C(OC)C=CC=C(C)C2 (stereo not shown) [Ansamitocin P-4, reference compound] |  |  | Solubility in chloroform, ethyl acetate, acetone, ethanol, methanol, pyridine, tetrahydrofuran & dimethylsulfoxide (Solubility): Soluble; Solubility in petr. ether, n-hexane & water (Solubility): Insoluble
17 | CCCC(=O)OC1CC(=O)N(C)c2cc(cc(O)c2Cl)CC(C)=CC=CC(OC)C2(O)CC(OC(=O)N2)C(C)C2OC12C (stereo not shown) [PDM-3', 20-demethoxy-20-hydroxymaytansinol 3-butyrate] | 21 mm | 2 µg/mL (≈ 3.22 µM) | 
18 | COC1C=CC=C(C)Cc2cc(O)c(Cl)c(c2)N(C)C(=O)CC(OC(=O)C(C)C)C2(C)OC2C(C)C2CC1(O)NC(=O)O2 (stereo not shown) [PDM-3] |  |  | MIC (Tetrahymena pyriformis W; serial dilution, 28° C., 44 to 48 hours, pH 7.0, read-out: Antiprotozoan activity, MIC): 2 µg/mL (≈ 3.22 µM); zone of inhibition at 100 µg/mL [1, 4]: 21 mm
19 | COC1C=CC=C(C)Cc2cc(O)c(Cl)c(c2)N(C)C(=O)CC(OC(=O)CC(C)C)C2(C)OC2C(C)C2CC1(O)NC(=O)O2 (stereo not shown) [PDM-4, 20-demethoxy-20-hydroxymaytansinol 3-isovalerate] | 24 mm | 1 µg/mL (≈ 1.57 µM) | Solubility in benzene, ether (Solubility): Slightly soluble; Solubility in chloroform, ethyl acetate, tetrahydrofuran, acetone, ethanol, methanol (Solubility): Soluble; Solubility in pyridine, dimethyl sulfoxide (Solubility): Freely soluble
